From paper PMC8161485 (ACS Central Science, 2021)
“Also recorded” adds a separate entry of the source.

Tested on: heme oxygenase 1 (HO-1)
Test: Induction of heme oxygenase 1 in primary AML specimens
Type: cell-based, human
Details: compared to vehicle-only control

C=C1C(=O)O[C@H]2[C@H]1CC/C(C)=C/CC[C@@]1(C)O[C@@H]21 [PTL, parthenolide]
induction of heme oxygenase 1 (HO-1): Dose-dependent induction; also recorded: comparatively larger induction of HO-1 at lower doses
